Data reported in DBAASP.
In brackets after ≈: the same amount, converted by molar mass. Blank lines part the entries; values can stand above or below the molecule they belong to.

Assays:
Assay in all cases: ≥ marks a high value that may be exact or a test limit, other limits are often not marked, values filed in µg/mL are converted to µM
Streptococcus agalactiae = system: Streptococcus agalactiae
[1] = system: Bacillus subtilis ATCC 6633
Shigella flexneri = system: Shigella flexneri
[2] = system: Escherichia coli ATCC 25922
[3] = system: Listeria monocytogenes ATCC 7644
[4] = system: Staphylococcus aureus ATCC 25923
[5] = system: Salmonella enterica subsp. enterica serovar Typhi ATCC 6399
Bacillus subtilis 168 = system: Bacillus subtilis 168
Staphylococcus aureus = system: Staphylococcus aureus
[6] = system: Staphylococcus aureus ATCC 43300
Escherichia coli B = system: Escherichia coli B
[7] = system: Pseudomonas aeruginosa ATCC 27853
Pseudomonas aeruginosa = system: Pseudomonas aeruginosa
[8] = system: Candida albicans F7-39/IDE99
[9] = system: Micrococcus luteus CCM 144
Staphylococcus aureus 1 = system: Staphylococcus aureus 1
[10] = system: Staphylococcus epidermidis
[11] = system: Escherichia coli IFO 12734
[12] = system: Staphylococcus aureus IFO 12732
[13] = system: Bacillus subtilis IFO 3513
[14] = system: Bacillus subtilis ATCC 23857
[15] = system: Staphylococcus aureus USA 300
[16] = system: Staphylococcus epidermidis ATCC 35984
[17] = system: Escherichia coli DH5alpha
[18] = system: Bacillus subtilis subsp. spizizenii DSM 347
[19] = system: Pseudomonas aeruginosa PAO1
[20] = system: Arthrobacter globiformis VKM Ac-1112
[21] = system: Staphylococcus xylosus DSM 20267
Escherichia coli MH1 = system: Escherichia coli MH1
[22] = system: Acinetobacter sp. DSM 586
[23] = system: Saccharomyces cerevisiae Y190
[24] = system: Escherichia coli DSM 1116
[25] = system: Bacillus subtilis VKM B-501
Escherichia coli K-12 = system: Escherichia coli K-12

MIC [17]: 1 µM (≈ 3.07 µg/mL)
MIC [18]: 1.3 µM (≈ 4 µg/mL)
MIC [19]: 4.1 µM (≈ 12.6 µg/mL)
MIC [20]: 0.5 µM (≈ 1.54 µg/mL)
MIC [21]: 1.3 µM (≈ 4 µg/mL)
MIC (Escherichia coli MH1): 0.7 µM (≈ 2.15 µg/mL)
MIC [22]: 1.3 µM (≈ 4 µg/mL)
MIC [23]: ≥ 33 µM
MIC [24]: 1.3 µM (≈ 4 µg/mL)
MIC [25]: 1 µM (≈ 3.07 µg/mL)
SMILES: CSCC[C@H](NC(=O)CNC(=O)[C@H](CO)NC(=O)[C@H](Cc1c[nH]c2ccccc12)NC(=O)[C@H](CCSC)NC(=O)[C@@H](N)CO)C(=O)N[C@@H](Cc1c[nH]c2ccccc12)C(=O)N[C@@H](CCCN=C(N)N)C(=O)N[C@@H](CCCN=C(N)N)C(=O)N[C@@H](CCCCN)C(=O)N[C@@H](CC(C)C)C(=O)N[C@@H](CCCCN)C(=O)N[C@@H](CCCCN)C(=O)N[C@@H](CC(C)C)C(=O)N[C@@H](CCCN=C(N)N)C(=O)N[C@@H](CC(N)=O)C(=O)N[C@@H](C)C(=O)N[C@@H](CC(C)C)C(=O)N[C@@H](CCCCN)C(=O)N[C@@H](CCCCN)C(=O)N[C@@H](CCCCN)C(=O)N[C@@H](CC(C)C)C(=O)N[C@@H](CCCCN)C(=O)NCC(=O)N[C@@H](CCC(=O)O)C(=O)O [SMWSGMWRRKLKKLRNALKKKLKGE]

MIC [2]: 40.3 µM (≈ 100 µg/mL)
MIC [17]: 2.5 µM (≈ 6.21 µg/mL)
MIC [18]: 6.44 µM (≈ 16 µg/mL)
MIC [19]: > 40 µM
MIC [20]: 0.3 µM (≈ 0.745 µg/mL)
MIC [21]: 3.22 µM (≈ 8 µg/mL)
MIC [4]: 33.8 µM (≈ 84 µg/mL)
MIC (Escherichia coli MH1): 6 µM (≈ 14.9 µg/mL)
MIC [22]: 3.22 µM (≈ 8 µg/mL)
MIC [23]: 20 µM (≈ 49.7 µg/mL)
MIC (Escherichia coli K-12): ≥ 100 µM
MIC [15]: ≥ 100 µM
MIC [24]: 3.22 µM (≈ 8 µg/mL)
MIC [25]: 1.2 µM (≈ 2.98 µg/mL)
SMILES: CSCC[C@H](NC(=O)[C@H](CO)NC(=O)[C@H](CCCCN)NC(=O)[C@H](Cc1c[nH]c2ccccc12)NC(=O)[C@@H](N)CO)C(=O)N[C@@H](C)C(=O)N[C@@H](CCCCN)C(=O)N[C@@H](CCCCN)C(=O)N[C@@H](CC(C)C)C(=O)N[C@@H](CCCCN)C(=O)N[C@@H](CCC(=O)O)C(=O)N[C@@H](Cc1ccc(O)cc1)C(=O)N[C@@H](CCSC)C(=O)N[C@@H](CCC(=O)O)C(=O)N[C@@H](CCCCN)C(=O)N[C@@H](CC(C)C)C(=O)N[C@@H](CCCCN)C(=O)N[C@@H](CCC(N)=O)C(=O)N[C@@H](CCCNC(=N)N)C(=O)N[C@@H](C)C(=O)O [SWKSMAKKLKEYMEKLKQRA]

Second part, the molecule before the results:

SMILES: CC[C@H](C)[C@H](NC(=O)[C@H](CC(C)C)NC(=O)[C@H](CCCCN)NC(=O)[C@H](CC(C)C)NC(=O)[C@H](C)NC(=O)CNC(=O)[C@H](CCCCN)NC(=O)[C@H](C)NC(=O)[C@H](CC(C)C)NC(=O)[C@H](C)NC(=O)CNC(=O)[C@H](Cc1c[nH]c2ccccc12)NC(=O)[C@@H](N)Cc1ccccc1)C(=O)NCC(=O)N[C@H](C(=O)N[C@@H](CO)C(=O)N[C@@H](CC(C)C)C(=O)N[C@@H](Cc1ccccc1)C(=O)N[C@@H](CO)C(=O)N[C@@H](CO)C(=O)N[C@@H](Cc1ccccc1)C(=O)N[C@@H](CO)C(=O)N[C@@H](CCCCN)C(=O)N[C@@H](CCCCN)C(=O)N[C@@H](CC(=O)O)C(=O)O)C(C)C [FWGALAKGALKLIGVSLFSSFSKKD]
MIC (Streptococcus agalactiae): ≥ 300 µM
MIC [1]: ≥ 300 µM
MIC (Shigella flexneri): ≥ 300 µM
MIC [2]: 300 µM (≈ 801 µg/mL)
MIC [3]: ≥ 300 µM
MIC [4]: 300 µM (≈ 801 µg/mL)
MIC [5]: ≥ 300 µM

SMILES: CC[C@H](C)[C@H](NC(=O)[C@H](CC(C)C)NC(=O)[C@H](CCCCN)NC(=O)[C@H](CC(C)C)NC(=O)[C@H](C)NC(=O)CNC(=O)[C@H](CCCCN)NC(=O)[C@H](C)NC(=O)[C@H](CC(C)C)NC(=O)[C@H](C)NC(=O)CNC(=O)[C@H](Cc1c[nH]c2ccccc12)NC(=O)[C@@H](N)Cc1ccccc1)C(=O)N[C@H](C(=O)NCC(=O)N[C@@H](CO)C(=O)N[C@@H](CC(C)C)C(=O)N[C@@H](Cc1ccccc1)C(=O)N[C@@H](CO)C(=O)N[C@@H](CO)C(=O)N[C@@H](Cc1ccccc1)C(=O)N[C@@H](CO)C(=O)N[C@@H](CCCCN)C(=O)N[C@@H](CCCCN)C(=O)N[C@@H](CC(=O)O)C(=O)O)C(C)C [FWGALAKGALKLIVGSLFSSFSKKD]
MIC (Streptococcus agalactiae): ≥ 300 µM
MIC [1]: ≥ 300 µM
MIC (Shigella flexneri): ≥ 300 µM
MIC [2]: 300 µM (≈ 801 µg/mL)
MIC [3]: ≥ 300 µM
MIC [4]: 300 µM (≈ 801 µg/mL)
MIC [5]: ≥ 300 µM

SMILES: CC[C@H](C)[C@H](NC(=O)CN)C(=O)N[C@@H](CCSC)C(=O)N[C@@H](CO)C(=O)N[C@@H](CO)C(=O)N[C@@H](CC(C)C)C(=O)N[C@@H](CCSC)C(=O)N[C@@H](CCCCN)C(=O)N[C@@H](CCCCN)C(=O)N[C@@H](CC(C)C)C(=O)N[C@@H](C)C(=O)N[C@@H](CCCCN)C(=O)N[C@@H](Cc1cnc[nH]1)C(=O)N[C@H](C(=O)N[C@@H](C)C(=O)N[C@@H](CCCCN)C(N)=O)[C@@H](C)CC [GIMSSLMKKLAKHIAK]
MIC (Bacillus subtilis 168): 7 µM (≈ 12.3 µg/mL)
MIC (Staphylococcus aureus): 63 µM (≈ 111 µg/mL)
MIC [6]: 63 µM (≈ 111 µg/mL)
MIC (Escherichia coli B): 15 µM (≈ 26.3 µg/mL)
MIC [7]: 7.9 µM (≈ 13.9 µg/mL)
MIC (Pseudomonas aeruginosa): 20 µM (≈ 35.1 µg/mL)
MIC [8]: 14 µM (≈ 24.6 µg/mL)
MIC [9]: 3 µM (≈ 5.27 µg/mL)
MIC (Staphylococcus aureus 1): ≥ 35 µM
MIC [10]: 6.2 µM (≈ 10.9 µg/mL)

SMILES: CC[C@H](C)[C@H](N)C(=O)N[C@@H](CC(C)C)C(=O)N1CCC[C@H]1C(=O)N[C@@H](CCCCN)C(=O)N[C@@H](CCCCN)C(=O)N[C@@H](Cc1c[nH]c2ccccc12)C(=O)N1CCC[C@H]1C(=O)N[C@@H](CCCCN)C(=O)N[C@@H](CC(C)C)C(=O)N1CCC[C@H]1C(=O)N[C@@H](Cc1c[nH]c2ccccc12)C(=O)N[C@@H](CCCN=C(N)N)C(=O)N[C@@H](CCCN=C(N)N)C(N)=O [ILPKKWPKLPWRR]
MIC [11]: 29.1 µM (≈ 50 µg/mL)
MIC [12]: 3.64 µM (≈ 6.25 µg/mL)
MIC [13]: 1.82 µM (≈ 3.13 µg/mL)

SMILES: CC[C@H](C)[C@H](N)C(=O)N[C@@H](CC(C)C)C(=O)N1CCC[C@H]1C(=O)N[C@@H](Cc1c[nH]c2ccccc12)C(=O)N[C@@H](CCCCN)C(=O)N[C@@H](CC(C)C)C(=O)N1CCC[C@H]1C(=O)N[C@@H](Cc1c[nH]c2ccccc12)C(=O)N[C@@H](Cc1c[nH]c2ccccc12)C(=O)N1CCC[C@H]1C(=O)N[C@@H](Cc1c[nH]c2ccccc12)C(=O)N[C@@H](CCCN=C(N)N)C(=O)N[C@@H](CCCN=C(N)N)C(N)=O [ILPWKLPWWPWRR]
MIC [11]: 13.6 µM (≈ 25 µg/mL)
MIC [12]: 0.851 µM (≈ 1.56 µg/mL)
MIC [13]: 1.71 µM (≈ 3.13 µg/mL)

SMILES: CC[C@H](C)[C@H](NC(=O)[C@H](C)NC(=O)[C@@H](N)CCSC)C(=O)N[C@H](C(=O)NCC(=O)N[C@H](C(=O)N[C@H](C(=O)N[C@H](C(=O)N[C@@H](CCCCN)C(=O)N[C@H](C(=O)N[C@H](C(=O)N[C@@H](CCCCN)C(=O)N[C@@H](C)C(=O)N[C@H](C(=O)N[C@H](C(=O)N[C@@H](CC(=O)O)C(=O)N[C@H](C(=O)N[C@@H](Cc1ccccc1)C(=O)N[C@@H](C)C(=O)N[C@@H](CCCCN)C(=O)O)[C@@H](C)CC)[C@@H](C)CC)[C@@H](C)CC)[C@@H](C)CC)[C@@H](C)CC)[C@@H](C)CC)[C@@H](C)CC)[C@@H](C)O)C(C)C [MAIVGTIIKIIKAIIDIFAK]
MIC [14]: ≥ 128 µM
MIC [2]: > 128 µM
MIC [15]: ≥ 64 µM
MIC [16]: ≥ 64 µM
